Data: patent publication US12673132B2, “Extrusion printing of biocompatible scaffolds” (William Marsh Rice University, priority 2020, dated 2026)
No end group written: not given here.

Columns and labels:
[1] = system: Rat bone marrow derived MSCs; assay: PicoGreen assay (DNA content) of MSC-seeded printed scaffolds; format: cell-based; conditions: osteogenic and osteochondral media, up to 28 days, FIG. 5A
From the text: (§1) Rat bone marrow derived MSCs (mesenchymal stem cells) were harvested by aspiration of bone marrow from the tibia of five 6-8 week old male Fischer 344 rats from Charles River Laboratories (Wilmington, MA), in accordance with protocols approved by the Rice Institutional Animal Care and Use Committee and in agreement with the animal care and use guidelines set forth by the National Institutes of Health. Cells from all rats were pooled to minimize inter-animal variability. Adherent cells were cultured in growth medium (DMEM with 10% v/v FBS and 1% v/v antibiotic-antimycotic) inside a humidified incubator at 37° C. and 5% CO2, and cryopreserved in liquid N2 until point of usage. All MSCs were used at Passage 3. Printed constructs were sterilized by exposure of both sides to UV light for 3 h, immersion in a sterile gradient (100%, 75%, 50%, 25%, 0%) of ethanol and PBS, and two additional washes in PBS. […] After weighing, each scaffold was frozen at −20° C. until ready for characterization. […] After homogenization, the proteinase K and acetic acid suspensions were allowed to digest for 16 h at 65° C. and room temperature, respectively, followed by quantification of biochemical content using assay kits. […] The bioactivity of PCL-peptide composites was determined by seeding MSCs on 3D printed constructs and investigating their ability to promote bone- and cartilage-specific ECM deposition in vitro. […]

[2] = system: Rat bone marrow derived MSCs; assay: DMMB assay (cartilage-specific sulfated glycosaminoglycans) of MSC-seeded printed scaffolds; format: cell-based
From the text: as §1, with “PBS. MSCs were seeded on the scaffolds by pipetting 30 μL of a 3.3×10^6 cells/mL suspension on top of each scaffold in a low-attachment 24-well plate. After 2 h, 970 μL of growth medium was gently added to each well. After 24 h of cell attachment, the growth medium was replaced with either chondrogenic, osteogenic, or osteochondral medium. Parallel chondrogenic (PCL-alkyne, PCL-NC) and osteogenic (PCL-alkyne, PCL-GHK) studies were conducted, in which scaffolds were cultured in both tissue-specific medium as well as mixed osteochondral medium.” for “PBS.”

[3] = system: Rat bone marrow derived MSCs; assay: Arsenazo III assay (bone-specific mineralization) of MSC-seeded printed scaffolds; format: cell-based; conditions: mixed osteochondral medium
From the text: as §1

[4] = microCT physical characterization of 3D printed PCL constructs; format: physicochemical; conditions: melt-extruded 4-layer crosshatch scaffold
Description: The 3D printed PCL constructs were fabricated by melt extrusion with an EnvisionTEC 3D Bioplotter Manufacturer (Gladbeck, Germany). The polymer of interest was placed in a metal cartridge, heated to 85-95° C., and extruded through a 27G needle at 4.9-5.1 bar pressure, 4.0 mm/s deposition speed, and 0.4 s pre-flow and post-flow, with imaging after each layer. Constructs were printed as a cylindrical, alternating crosshatch pattern with 4 layers of 5 mm diameter and 220 μm thickness, producing scaffolds with total dimensions of 5 mm diameter and 0.88 mm height. The porosity, average fiber diameter, and average pore diameter of each construct was assessed by microcomputed tomography (μCT) using a Bruker SkyScan 1272 (Billerica, MA). Scans were acquired at a voltage of 40 kV and a current of 250 μA, with a rotation step size of 0.4°, 8 μm/pixel, frame averaging of 6, and random movement of 10. Reconstruction, slicing, and analysis were performed in Bruker NRecon and CTAn software (Billerica, MA) and LabView (Austin, TX). For quantification of physical architectural properties, a proportional volume of interest was set at 75% scale of the x, v, and z axes, equally spaced from the scaffold edges.

Substance | DNA content normalized to scaffold mass (cell proliferation) [1] | sGAG content normalized to cellular content (sGAG deposition per cell) ([2]; chondrogenic medium, up to day 28, FIG. 5D) | sGAG content normalized to cellular content (sGAG deposition per cell) ([2]; mixed osteochondral medium, over time, FIG. 5D) | sGAG content normalized to scaffold mass ([2]; serum-free chondrogenic medium, FIG. 5E) | Bone-specific calcium content normalized to cellular content (mineralization per cell) ([3]; FIG. 5B) | Bone-specific calcium content normalized to scaffold mass (scaffold mineralization) ([3]; FIG. 5C) | Average Fiber Diameter [4] | Average Pore Diameter [4] | Porosity [4]
PCL-NC: PCL-alkyne click-conjugated to azide-terminated N-cadherin peptide (SEQ ID NO: 3, GGGHAVDI) (GGGHAVDI-NH2; not fully specified (N-terminus); also: N-terminal azide click-conjugated to PCL-alkyne) | statistically lower proliferation | large spike in cartilage-specific sGAG deposition per cell by day 28 | maintained a constant level of sGAG deposition per cell | statistically significant increase in mass-normalized sGAG content | greater mineralization per cell | did not produce statistically significant effects on scaffold mineralization | 200 ± 9 μm | 432 ± 31 μm | 71.8 ± 3.7%
PCL-BMPm: PCL-alkyne click-conjugated to azide-terminated bone morphogenetic protein mimetic peptide (SEQ ID NO: 1, GGGRHVRISRSL) (GGGRHVRISRSL-NH2; not fully specified (N-terminus); also: N-terminal azide click-conjugated to PCL-alkyne) | – | – | – | – | – | – | 262 ± 48 μm | 419 ± 37 μm | 70.7 ± 4.2%
